The NIST ThermoML archive (doi:10.1016/j.jct.2013.10.038)
± gives the expanded uncertainty stated by the source.

Experiment: activity coefficient (dimensionless); of the first substance listed, at infinite dilution; xn = mol fraction of the nth substance listed
Conditions: 333.15 K; 101 kPa; Liquid; Chromatography; x1 = 0

Structure (SMILES)	activity coefficient
CCO [ethanol] + CCCCCCn1cc[n+](C)c1.O=C([O-])C(F)(F)F	0.23 ± 0.04
CCOC(C)=O [ethyl acetate] + CCCCCCn1cc[n+](C)c1.O=C([O-])C(F)(F)F	3.02 ± 0.32
CCc1ccccc1 [ethylbenzene] + CCCCCCn1cc[n+](C)c1.O=C([O-])C(F)(F)F	4.25 ± 0.45
CO [methanol] + CCCCCCn1cc[n+](C)c1.O=C([O-])C(F)(F)F	0.13 ± 0.03
CCCO [propan-1-ol] + CCCCCCn1cc[n+](C)c1.O=C([O-])C(F)(F)F	0.26 ± 0.04
CC(C)O [propan-2-ol] + CCCCCCn1cc[n+](C)c1.O=C([O-])C(F)(F)F	0.38 ± 0.05
C=Cc1ccccc1 [styrene] + CCCCCCn1cc[n+](C)c1.O=C([O-])C(F)(F)F	2.53 ± 0.27
ClC(Cl)(Cl)Cl [tetrachloromethane] + CCCCCCn1cc[n+](C)c1.O=C([O-])C(F)(F)F	0.91 ± 0.09
C1CCOC1 [tetrahydrofuran] + CCCCCCn1cc[n+](C)c1.O=C([O-])C(F)(F)F	2 ± 0.21
Cc1ccccc1 [toluene] + CCCCCCn1cc[n+](C)c1.O=C([O-])C(F)(F)F	3.1 ± 0.33
ClC(Cl)Cl [trichloromethane] + CCCCCCn1cc[n+](C)c1.O=C([O-])C(F)(F)F	0.3 ± 0.04

Same assay, conditions: 343.15 K; 101 kPa; Liquid; Chromatography; x1 = 0

Structure (SMILES)	activity coefficient
ClCCCl [1,2-dichloroethane] + CCCCCCn1cc[n+](C)c1.O=C([O-])C(F)(F)F	1.26 ± 0.13
Cc1ccccc1C [1,2-dimethylbenzene] + CCCCCCn1cc[n+](C)c1.O=C([O-])C(F)(F)F	4.1 ± 0.43
Cc1cccc(C)c1 [1,3-dimethylbenzene] + CCCCCCn1cc[n+](C)c1.O=C([O-])C(F)(F)F	4.42 ± 0.46
Cc1ccc(C)cc1 [1,4-dimethylbenzene] + CCCCCCn1cc[n+](C)c1.O=C([O-])C(F)(F)F	4.32 ± 0.45
C1COCCO1 [1,4-dioxane] + CCCCCCn1cc[n+](C)c1.O=C([O-])C(F)(F)F	1.95 ± 0.2
CC(C)CO [2-methyl-1-propanol] + CCCCCCn1cc[n+](C)c1.O=C([O-])C(F)(F)F	0.3 ± 0.04
CC(C)=O [acetone] + CCCCCCn1cc[n+](C)c1.O=C([O-])C(F)(F)F	1.67 ± 0.17
CC#N [acetonitrile] + CCCCCCn1cc[n+](C)c1.O=C([O-])C(F)(F)F	1.22 ± 0.13
c1ccccc1 [benzene] + CCCCCCn1cc[n+](C)c1.O=C([O-])C(F)(F)F	2.12 ± 0.22
Brc1ccccc1 [bromobenzene] + CCCCCCn1cc[n+](C)c1.O=C([O-])C(F)(F)F	2.32 ± 0.24
Clc1ccccc1 [chlorobenzene] + CCCCCCn1cc[n+](C)c1.O=C([O-])C(F)(F)F	2.2 ± 0.23
ClCCl [dichloromethane] + CCCCCCn1cc[n+](C)c1.O=C([O-])C(F)(F)F	0.7 ± 0.07
CCO [ethanol] + CCCCCCn1cc[n+](C)c1.O=C([O-])C(F)(F)F	0.24 ± 0.04
CCOC(C)=O [ethyl acetate] + CCCCCCn1cc[n+](C)c1.O=C([O-])C(F)(F)F	3.12 ± 0.33
CCc1ccccc1 [ethylbenzene] + CCCCCCn1cc[n+](C)c1.O=C([O-])C(F)(F)F	4.32 ± 0.45
CO [methanol] + CCCCCCn1cc[n+](C)c1.O=C([O-])C(F)(F)F	0.13 ± 0.03
CCCO [propan-1-ol] + CCCCCCn1cc[n+](C)c1.O=C([O-])C(F)(F)F	0.27 ± 0.04
CC(C)O [propan-2-ol] + CCCCCCn1cc[n+](C)c1.O=C([O-])C(F)(F)F	0.39 ± 0.05
C=Cc1ccccc1 [styrene] + CCCCCCn1cc[n+](C)c1.O=C([O-])C(F)(F)F	2.61 ± 0.27
ClC(Cl)(Cl)Cl [tetrachloromethane] + CCCCCCn1cc[n+](C)c1.O=C([O-])C(F)(F)F	1.02 ± 0.1
C1CCOC1 [tetrahydrofuran] + CCCCCCn1cc[n+](C)c1.O=C([O-])C(F)(F)F	2.02 ± 0.21
Cc1ccccc1 [toluene] + CCCCCCn1cc[n+](C)c1.O=C([O-])C(F)(F)F	3.14 ± 0.33
ClC(Cl)Cl [trichloromethane] + CCCCCCn1cc[n+](C)c1.O=C([O-])C(F)(F)F	0.45 ± 0.05

Same assay, conditions: 353.15 K; 101 kPa; Liquid; Chromatography; x1 = 0

Structure (SMILES)	activity coefficient
ClCCCl [1,2-dichloroethane] + CCCCCCn1cc[n+](C)c1.O=C([O-])C(F)(F)F	1.62 ± 0.17
Cc1ccccc1C [1,2-dimethylbenzene] + CCCCCCn1cc[n+](C)c1.O=C([O-])C(F)(F)F	4.13 ± 0.43
Cc1cccc(C)c1 [1,3-dimethylbenzene] + CCCCCCn1cc[n+](C)c1.O=C([O-])C(F)(F)F	4.53 ± 0.48
Cc1ccc(C)cc1 [1,4-dimethylbenzene] + CCCCCCn1cc[n+](C)c1.O=C([O-])C(F)(F)F	4.42 ± 0.46
C1COCCO1 [1,4-dioxane] + CCCCCCn1cc[n+](C)c1.O=C([O-])C(F)(F)F	1.95 ± 0.2
CC(C)CO [2-methyl-1-propanol] + CCCCCCn1cc[n+](C)c1.O=C([O-])C(F)(F)F	0.31 ± 0.04
CC(C)=O [acetone] + CCCCCCn1cc[n+](C)c1.O=C([O-])C(F)(F)F	1.67 ± 0.17
CC#N [acetonitrile] + CCCCCCn1cc[n+](C)c1.O=C([O-])C(F)(F)F	1.28 ± 0.13
c1ccccc1 [benzene] + CCCCCCn1cc[n+](C)c1.O=C([O-])C(F)(F)F	2.13 ± 0.22
Brc1ccccc1 [bromobenzene] + CCCCCCn1cc[n+](C)c1.O=C([O-])C(F)(F)F	2.36 ± 0.25
Clc1ccccc1 [chlorobenzene] + CCCCCCn1cc[n+](C)c1.O=C([O-])C(F)(F)F	2.2 ± 0.23
ClCCl [dichloromethane] + CCCCCCn1cc[n+](C)c1.O=C([O-])C(F)(F)F	0.72 ± 0.08
CCO [ethanol] + CCCCCCn1cc[n+](C)c1.O=C([O-])C(F)(F)F	0.26 ± 0.04
CCOC(C)=O [ethyl acetate] + CCCCCCn1cc[n+](C)c1.O=C([O-])C(F)(F)F	3.15 ± 0.33
CCc1ccccc1 [ethylbenzene] + CCCCCCn1cc[n+](C)c1.O=C([O-])C(F)(F)F	4.34 ± 0.46
CO [methanol] + CCCCCCn1cc[n+](C)c1.O=C([O-])C(F)(F)F	0.16 ± 0.03
CCCO [propan-1-ol] + CCCCCCn1cc[n+](C)c1.O=C([O-])C(F)(F)F	0.29 ± 0.04
CC(C)O [propan-2-ol] + CCCCCCn1cc[n+](C)c1.O=C([O-])C(F)(F)F	0.4 ± 0.05
C=Cc1ccccc1 [styrene] + CCCCCCn1cc[n+](C)c1.O=C([O-])C(F)(F)F	2.68 ± 0.28
ClC(Cl)(Cl)Cl [tetrachloromethane] + CCCCCCn1cc[n+](C)c1.O=C([O-])C(F)(F)F	1.19 ± 0.12
C1CCOC1 [tetrahydrofuran] + CCCCCCn1cc[n+](C)c1.O=C([O-])C(F)(F)F	2.02 ± 0.21
Cc1ccccc1 [toluene] + CCCCCCn1cc[n+](C)c1.O=C([O-])C(F)(F)F	3.17 ± 0.33
ClC(Cl)Cl [trichloromethane] + CCCCCCn1cc[n+](C)c1.O=C([O-])C(F)(F)F	0.68 ± 0.07

Same assay, conditions: 363.15 K; 101 kPa; Liquid; Chromatography; x1 = 0

Structure (SMILES)	activity coefficient
ClCCCl [1,2-dichloroethane] + CCCCCCn1cc[n+](C)c1.O=C([O-])C(F)(F)F	1.67 ± 0.17
Cc1ccccc1C [1,2-dimethylbenzene] + CCCCCCn1cc[n+](C)c1.O=C([O-])C(F)(F)F	4.53 ± 0.48
Cc1cccc(C)c1 [1,3-dimethylbenzene] + CCCCCCn1cc[n+](C)c1.O=C([O-])C(F)(F)F	4.56 ± 0.48
Cc1ccc(C)cc1 [1,4-dimethylbenzene] + CCCCCCn1cc[n+](C)c1.O=C([O-])C(F)(F)F	4.43 ± 0.47
C1COCCO1 [1,4-dioxane] + CCCCCCn1cc[n+](C)c1.O=C([O-])C(F)(F)F	1.97 ± 0.21
CC(C)CO [2-methyl-1-propanol] + CCCCCCn1cc[n+](C)c1.O=C([O-])C(F)(F)F	0.31 ± 0.04
CC(C)=O [acetone] + CCCCCCn1cc[n+](C)c1.O=C([O-])C(F)(F)F	1.67 ± 0.17
CC#N [acetonitrile] + CCCCCCn1cc[n+](C)c1.O=C([O-])C(F)(F)F	1.32 ± 0.14
c1ccccc1 [benzene] + CCCCCCn1cc[n+](C)c1.O=C([O-])C(F)(F)F	2.14 ± 0.22
Brc1ccccc1 [bromobenzene] + CCCCCCn1cc[n+](C)c1.O=C([O-])C(F)(F)F	2.41 ± 0.25
Clc1ccccc1 [chlorobenzene] + CCCCCCn1cc[n+](C)c1.O=C([O-])C(F)(F)F	2.2 ± 0.23
ClCCl [dichloromethane] + CCCCCCn1cc[n+](C)c1.O=C([O-])C(F)(F)F	0.73 ± 0.08
CCO [ethanol] + CCCCCCn1cc[n+](C)c1.O=C([O-])C(F)(F)F	0.27 ± 0.04
CCOC(C)=O [ethyl acetate] + CCCCCCn1cc[n+](C)c1.O=C([O-])C(F)(F)F	3.44 ± 0.36
CCc1ccccc1 [ethylbenzene] + CCCCCCn1cc[n+](C)c1.O=C([O-])C(F)(F)F	4.36 ± 0.46
CO [methanol] + CCCCCCn1cc[n+](C)c1.O=C([O-])C(F)(F)F	0.16 ± 0.03
CCCO [propan-1-ol] + CCCCCCn1cc[n+](C)c1.O=C([O-])C(F)(F)F	0.31 ± 0.04
CC(C)O [propan-2-ol] + CCCCCCn1cc[n+](C)c1.O=C([O-])C(F)(F)F	0.42 ± 0.05
C=Cc1ccccc1 [styrene] + CCCCCCn1cc[n+](C)c1.O=C([O-])C(F)(F)F	2.73 ± 0.29
ClC(Cl)(Cl)Cl [tetrachloromethane] + CCCCCCn1cc[n+](C)c1.O=C([O-])C(F)(F)F	1.32 ± 0.14
C1CCOC1 [tetrahydrofuran] + CCCCCCn1cc[n+](C)c1.O=C([O-])C(F)(F)F	2.05 ± 0.22
Cc1ccccc1 [toluene] + CCCCCCn1cc[n+](C)c1.O=C([O-])C(F)(F)F	3.2 ± 0.34
ClC(Cl)Cl [trichloromethane] + CCCCCCn1cc[n+](C)c1.O=C([O-])C(F)(F)F	1.06 ± 0.11

Experiment: not given
Conditions: 293.15 K; 101.33 kPa; Liquid; Pycnometric method

Structure (SMILES)	mass density
CCCCCCn1cc[n+](C)c1.O=C([O-])C(F)(F)F [1-hexyl-3-methylimidazolium trifluoroacetate]	1153.5 ± 1.1 kg/m3

Same assay, conditions: 303.15 K; 101.33 kPa; Liquid; Pycnometric method

Structure (SMILES)	mass density
CCCCCCn1cc[n+](C)c1.O=C([O-])C(F)(F)F [1-hexyl-3-methylimidazolium trifluoroacetate]	1146.6 ± 1.1 kg/m3

Same assay, conditions: 313.15 K; 101.33 kPa; Liquid; Pycnometric method

Structure (SMILES)	mass density
CCCCCCn1cc[n+](C)c1.O=C([O-])C(F)(F)F [1-hexyl-3-methylimidazolium trifluoroacetate]	1140.7 ± 1.1 kg/m3

Same assay, conditions: 323.15 K; 101.33 kPa; Liquid; Pycnometric method

Structure (SMILES)	mass density
CCCCCCn1cc[n+](C)c1.O=C([O-])C(F)(F)F [1-hexyl-3-methylimidazolium trifluoroacetate]	1134.4 ± 1.1 kg/m3

Same assay, conditions: 333.15 K; 101.33 kPa; Liquid; Pycnometric method

Structure (SMILES)	mass density
CCCCCCn1cc[n+](C)c1.O=C([O-])C(F)(F)F [1-hexyl-3-methylimidazolium trifluoroacetate]	1127.8 ± 1.1 kg/m3

Same assay, conditions: 343.15 K; 101.33 kPa; Liquid; Pycnometric method

Structure (SMILES)	mass density
CCCCCCn1cc[n+](C)c1.O=C([O-])C(F)(F)F [1-hexyl-3-methylimidazolium trifluoroacetate]	1121.6 ± 1.1 kg/m3
